Key:
Homo sapiens = organism: Homo sapiens; assay: Inhibition of His-tagged human CAMK2 expressed in Escherichia coli at 10 uM
[1] = target: Myosin light chain kinase, smooth muscle (Gallus gallus) (UniProt P11799); assay: Inhibition of chicken SmMLCK expressed in Escherichia coli at 10 uM; conditions: Ovis aries
[2] = Inhibition of His-tagged human CAMK2 expressed in Escherichia coli
Oryctolagus cuniculus [3] = organism: Oryctolagus cuniculus; conditions: at 10 µM
Description: Inhibition of rabbit MKK1 expressed in Escherichia coli at 10 uM

[4] = target: Mitogen-activated protein kinase 1 (Homo sapiens) (UniProt P28482); conditions: at 10 µM
Sequence of Mitogen-activated protein kinase 1 (Homo sapiens) (P28482 whole entry): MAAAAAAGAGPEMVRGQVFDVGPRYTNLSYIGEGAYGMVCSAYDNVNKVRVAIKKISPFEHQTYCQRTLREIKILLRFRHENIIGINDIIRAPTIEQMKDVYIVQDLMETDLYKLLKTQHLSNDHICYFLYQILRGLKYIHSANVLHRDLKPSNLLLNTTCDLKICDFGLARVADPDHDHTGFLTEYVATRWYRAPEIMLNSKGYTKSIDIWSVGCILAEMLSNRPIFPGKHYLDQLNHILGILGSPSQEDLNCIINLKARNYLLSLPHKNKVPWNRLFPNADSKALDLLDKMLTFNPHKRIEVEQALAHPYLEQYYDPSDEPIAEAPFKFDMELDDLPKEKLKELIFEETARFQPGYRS
Description: Inhibition of Gst-tagged human MAPK2/ERK2 expressed in Escherichia coli at 10 uM

[5] = target: Mitogen-activated protein kinase 8 (Homo sapiens) (UniProt P45983); conditions: at 10 µM
Sequence of Mitogen-activated protein kinase 8 (Homo sapiens) (P45983 whole entry): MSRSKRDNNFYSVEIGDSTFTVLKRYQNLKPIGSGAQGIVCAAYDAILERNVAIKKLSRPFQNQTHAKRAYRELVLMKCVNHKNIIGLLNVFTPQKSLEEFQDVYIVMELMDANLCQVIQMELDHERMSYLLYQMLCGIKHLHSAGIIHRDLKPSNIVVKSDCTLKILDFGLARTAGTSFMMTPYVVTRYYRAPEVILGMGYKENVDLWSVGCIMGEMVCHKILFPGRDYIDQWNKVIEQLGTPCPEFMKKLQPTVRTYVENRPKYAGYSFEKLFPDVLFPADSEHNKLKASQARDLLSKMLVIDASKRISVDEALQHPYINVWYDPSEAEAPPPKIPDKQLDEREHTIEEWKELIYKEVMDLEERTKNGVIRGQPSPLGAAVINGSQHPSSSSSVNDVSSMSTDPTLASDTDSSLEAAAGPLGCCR
Description: Inhibition of Gst-tagged human JNK1a1 expressed in Escherichia coli at 10 uM

[6] = target: Mitogen-activated protein kinase 11 (Homo sapiens) (UniProt Q15759); conditions: at 10 µM
Sequence of Mitogen-activated protein kinase 11 (Homo sapiens) (Q15759 whole entry): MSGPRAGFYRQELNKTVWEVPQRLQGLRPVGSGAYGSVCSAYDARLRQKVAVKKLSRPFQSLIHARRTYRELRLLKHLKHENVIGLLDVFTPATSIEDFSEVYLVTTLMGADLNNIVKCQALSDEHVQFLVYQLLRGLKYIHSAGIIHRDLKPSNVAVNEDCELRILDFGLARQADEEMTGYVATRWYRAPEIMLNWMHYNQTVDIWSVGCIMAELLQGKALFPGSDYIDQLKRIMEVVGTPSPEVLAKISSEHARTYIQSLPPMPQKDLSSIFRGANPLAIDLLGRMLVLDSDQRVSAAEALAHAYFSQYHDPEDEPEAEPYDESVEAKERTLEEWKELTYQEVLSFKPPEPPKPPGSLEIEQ
Description: Inhibition of Gst-tagged human SAPK2b/p38--beta-2 expressed in Escherichia coli at 10 uM

[7] = target: T1, Mitogen-activated protein kinase 13 (Homo sapiens) (UniProt O15264); conditions: at 10 µM
T1 sequence (whole entry): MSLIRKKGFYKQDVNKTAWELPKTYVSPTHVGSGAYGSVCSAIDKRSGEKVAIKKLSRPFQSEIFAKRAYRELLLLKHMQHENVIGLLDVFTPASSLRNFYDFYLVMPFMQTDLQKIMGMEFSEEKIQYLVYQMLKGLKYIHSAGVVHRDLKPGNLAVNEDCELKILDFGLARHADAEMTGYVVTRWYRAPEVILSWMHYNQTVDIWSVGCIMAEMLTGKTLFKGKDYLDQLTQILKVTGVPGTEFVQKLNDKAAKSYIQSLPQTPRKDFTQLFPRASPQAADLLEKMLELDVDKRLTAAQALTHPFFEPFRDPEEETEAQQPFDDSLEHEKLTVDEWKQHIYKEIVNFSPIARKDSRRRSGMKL
Description: Inhibition of Gst-tagged human SAPK4/p38delta expressed in Escherichia coli at 10 uM

Oryctolagus cuniculus [8] = organism: Oryctolagus cuniculus; conditions: Muscle tissue, at 10 µM
Description: Inhibition of MAPKAPK1b from rabbit skeletal muscle at 10 uM

[9] = target: T2, MAP kinase-activated protein kinase 2 (Homo sapiens, UniProt P49137); conditions: at 10 µM
T2 sequence (P49137 whole entry, looked up): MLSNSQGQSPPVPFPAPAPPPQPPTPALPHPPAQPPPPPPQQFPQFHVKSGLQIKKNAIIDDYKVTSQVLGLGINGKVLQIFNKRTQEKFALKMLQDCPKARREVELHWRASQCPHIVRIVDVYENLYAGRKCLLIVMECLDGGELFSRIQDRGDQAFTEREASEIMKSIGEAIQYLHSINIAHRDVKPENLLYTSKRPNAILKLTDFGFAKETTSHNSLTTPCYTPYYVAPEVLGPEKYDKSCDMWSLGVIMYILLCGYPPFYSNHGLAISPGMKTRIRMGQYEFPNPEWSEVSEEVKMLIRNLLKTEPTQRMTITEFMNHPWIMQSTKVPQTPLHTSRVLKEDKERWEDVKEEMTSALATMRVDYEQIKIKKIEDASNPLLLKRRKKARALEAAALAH
Description: Inhibition of Gst-tagged human MAPKAPK2 expressed in Escherichia coli at 10 uM

[10] = target: T3, Ribosomal protein S6 kinase alpha-5 (Homo sapiens, UniProt O75582); conditions: Sf9, at 10 µM
Description: Inhibition of His-tagged human MSK1 expressed in Sf9 cells at 10 uM

[11] = target: T4, MAP kinase-activated protein kinase 5 (Homo sapiens) (UniProt Q8IW41); conditions: Sf9, at 10 µM
T4 sequence (whole entry): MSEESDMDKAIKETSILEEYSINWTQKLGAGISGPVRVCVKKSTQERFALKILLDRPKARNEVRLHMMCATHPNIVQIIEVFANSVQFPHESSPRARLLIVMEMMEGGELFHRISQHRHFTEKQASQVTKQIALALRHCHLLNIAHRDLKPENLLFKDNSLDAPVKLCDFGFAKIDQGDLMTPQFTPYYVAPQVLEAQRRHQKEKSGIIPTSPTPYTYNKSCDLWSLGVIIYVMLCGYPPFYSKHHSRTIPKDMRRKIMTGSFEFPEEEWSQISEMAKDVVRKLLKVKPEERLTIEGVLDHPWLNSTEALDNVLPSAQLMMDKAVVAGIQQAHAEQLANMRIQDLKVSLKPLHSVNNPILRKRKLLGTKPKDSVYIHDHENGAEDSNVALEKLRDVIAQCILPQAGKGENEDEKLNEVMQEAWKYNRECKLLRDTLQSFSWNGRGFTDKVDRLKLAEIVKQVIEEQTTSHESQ
Description: Inhibition of His-tagged human PRAK expressed in Sf9 cells at 10 uM

Bos taurus [12] = organism: Bos taurus; conditions: at 10 µM
Description: Inhibition of bovine heart PKA at 10 uM

[13] = target: 3-phosphoinositide-dependent protein kinase 1 (Homo sapiens) (UniProt O15530); conditions: Sf21, at 10 µM
Sequence of 3-phosphoinositide-dependent protein kinase 1 (Homo sapiens) (O15530 whole entry, looked up): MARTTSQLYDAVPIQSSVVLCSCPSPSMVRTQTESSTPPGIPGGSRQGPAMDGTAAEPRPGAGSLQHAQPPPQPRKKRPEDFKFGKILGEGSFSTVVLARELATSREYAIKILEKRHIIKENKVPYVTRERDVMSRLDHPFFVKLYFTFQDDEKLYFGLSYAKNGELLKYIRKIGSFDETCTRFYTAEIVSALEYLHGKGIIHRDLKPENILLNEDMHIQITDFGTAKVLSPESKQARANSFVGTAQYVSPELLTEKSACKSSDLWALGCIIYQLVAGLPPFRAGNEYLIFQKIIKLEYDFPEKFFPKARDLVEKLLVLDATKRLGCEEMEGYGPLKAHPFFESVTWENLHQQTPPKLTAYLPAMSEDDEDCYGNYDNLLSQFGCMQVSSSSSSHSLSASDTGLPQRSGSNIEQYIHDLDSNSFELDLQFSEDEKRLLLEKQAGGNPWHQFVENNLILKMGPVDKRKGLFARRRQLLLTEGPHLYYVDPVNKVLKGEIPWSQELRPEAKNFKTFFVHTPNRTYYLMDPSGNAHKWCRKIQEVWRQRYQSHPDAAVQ

[14] = target: RAC-alpha serine/threonine-protein kinase (Homo sapiens) (UniProt P31749); conditions: Sf9, at 10 µM
Sequence of RAC-alpha serine/threonine-protein kinase (Homo sapiens) (P31749 whole entry): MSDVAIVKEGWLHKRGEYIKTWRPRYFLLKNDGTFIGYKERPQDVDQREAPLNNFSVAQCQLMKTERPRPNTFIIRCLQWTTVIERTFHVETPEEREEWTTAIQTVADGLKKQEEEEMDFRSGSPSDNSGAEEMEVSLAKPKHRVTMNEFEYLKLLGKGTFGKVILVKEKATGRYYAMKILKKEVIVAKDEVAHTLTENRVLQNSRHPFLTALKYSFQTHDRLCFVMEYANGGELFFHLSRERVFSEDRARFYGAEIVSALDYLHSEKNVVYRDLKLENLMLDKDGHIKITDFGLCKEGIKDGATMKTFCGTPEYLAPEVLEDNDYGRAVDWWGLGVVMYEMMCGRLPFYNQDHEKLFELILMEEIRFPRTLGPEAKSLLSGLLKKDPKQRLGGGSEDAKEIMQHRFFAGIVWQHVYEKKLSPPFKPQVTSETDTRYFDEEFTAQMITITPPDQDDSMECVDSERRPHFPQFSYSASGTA
Description: Inhibition of human PKBalpha expressed in SF9 cells at 10 uM

[15] = target: T5, Serine/threonine-protein kinase Sgk1 (Homo sapiens) (UniProt O00141); conditions: Sf9, at 10 µM
T5 sequence (whole entry): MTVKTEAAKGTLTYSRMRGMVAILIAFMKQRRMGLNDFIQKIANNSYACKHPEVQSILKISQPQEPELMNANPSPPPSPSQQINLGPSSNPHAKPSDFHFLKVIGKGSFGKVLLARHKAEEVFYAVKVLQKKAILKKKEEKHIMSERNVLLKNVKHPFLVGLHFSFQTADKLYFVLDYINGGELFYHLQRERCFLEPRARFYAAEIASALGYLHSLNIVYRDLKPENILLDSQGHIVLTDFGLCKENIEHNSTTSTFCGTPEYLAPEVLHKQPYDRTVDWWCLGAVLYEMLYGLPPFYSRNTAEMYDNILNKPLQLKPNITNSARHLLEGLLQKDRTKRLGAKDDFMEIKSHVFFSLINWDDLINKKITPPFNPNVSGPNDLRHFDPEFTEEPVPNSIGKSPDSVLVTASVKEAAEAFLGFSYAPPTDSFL
Description: Inhibition of His-tagged human SGK expressed in Sf9 cells at 10 uM

[16] = target: T6, Ribosomal protein S6 kinase beta-1 (Homo sapiens, UniProt P23443); conditions: at 10 µM
T6 sequence (P23443 whole entry, looked up): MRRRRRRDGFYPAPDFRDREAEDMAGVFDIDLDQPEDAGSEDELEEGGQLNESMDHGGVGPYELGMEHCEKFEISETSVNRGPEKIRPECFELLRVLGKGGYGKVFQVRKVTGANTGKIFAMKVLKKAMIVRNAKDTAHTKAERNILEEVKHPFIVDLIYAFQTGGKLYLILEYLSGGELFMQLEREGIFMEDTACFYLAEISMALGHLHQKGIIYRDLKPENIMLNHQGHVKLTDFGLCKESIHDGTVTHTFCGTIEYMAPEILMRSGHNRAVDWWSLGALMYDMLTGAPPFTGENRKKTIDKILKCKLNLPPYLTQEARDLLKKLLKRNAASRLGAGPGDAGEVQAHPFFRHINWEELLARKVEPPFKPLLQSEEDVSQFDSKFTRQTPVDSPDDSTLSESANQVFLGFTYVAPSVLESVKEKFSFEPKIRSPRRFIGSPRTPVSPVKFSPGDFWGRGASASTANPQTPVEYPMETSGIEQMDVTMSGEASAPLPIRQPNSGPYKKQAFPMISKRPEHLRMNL
Description: Inhibition of His-tagged human S6K1 expressed in Escherichia coli at 10 uM

[17] = target: T7, Glycogen synthase kinase-3 beta (Homo sapiens, UniProt P49841); conditions: Sf21, at 10 µM
T7 sequence (P49841 whole entry, looked up): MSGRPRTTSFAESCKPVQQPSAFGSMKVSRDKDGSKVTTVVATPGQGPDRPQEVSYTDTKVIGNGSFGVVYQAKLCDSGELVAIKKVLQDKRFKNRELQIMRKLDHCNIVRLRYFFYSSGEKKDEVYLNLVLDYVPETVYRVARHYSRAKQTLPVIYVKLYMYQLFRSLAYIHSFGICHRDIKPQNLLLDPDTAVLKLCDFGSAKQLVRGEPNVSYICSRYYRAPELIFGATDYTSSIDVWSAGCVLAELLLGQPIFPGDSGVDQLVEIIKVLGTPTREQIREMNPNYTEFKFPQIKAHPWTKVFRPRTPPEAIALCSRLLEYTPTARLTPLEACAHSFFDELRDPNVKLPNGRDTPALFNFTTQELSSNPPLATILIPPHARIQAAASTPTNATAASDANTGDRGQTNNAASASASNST
Description: Inhibition of His-tagged human GSK3b expressed in Sf21 cells at 10 uM

[18] = target: Rho-associated protein kinase 2 (Rattus norvegicus) (UniProt Q62868); conditions: Sf9, at 10 µM
Sequence of Rho-associated protein kinase 2 (Rattus norvegicus) (Q62868 whole entry, looked up): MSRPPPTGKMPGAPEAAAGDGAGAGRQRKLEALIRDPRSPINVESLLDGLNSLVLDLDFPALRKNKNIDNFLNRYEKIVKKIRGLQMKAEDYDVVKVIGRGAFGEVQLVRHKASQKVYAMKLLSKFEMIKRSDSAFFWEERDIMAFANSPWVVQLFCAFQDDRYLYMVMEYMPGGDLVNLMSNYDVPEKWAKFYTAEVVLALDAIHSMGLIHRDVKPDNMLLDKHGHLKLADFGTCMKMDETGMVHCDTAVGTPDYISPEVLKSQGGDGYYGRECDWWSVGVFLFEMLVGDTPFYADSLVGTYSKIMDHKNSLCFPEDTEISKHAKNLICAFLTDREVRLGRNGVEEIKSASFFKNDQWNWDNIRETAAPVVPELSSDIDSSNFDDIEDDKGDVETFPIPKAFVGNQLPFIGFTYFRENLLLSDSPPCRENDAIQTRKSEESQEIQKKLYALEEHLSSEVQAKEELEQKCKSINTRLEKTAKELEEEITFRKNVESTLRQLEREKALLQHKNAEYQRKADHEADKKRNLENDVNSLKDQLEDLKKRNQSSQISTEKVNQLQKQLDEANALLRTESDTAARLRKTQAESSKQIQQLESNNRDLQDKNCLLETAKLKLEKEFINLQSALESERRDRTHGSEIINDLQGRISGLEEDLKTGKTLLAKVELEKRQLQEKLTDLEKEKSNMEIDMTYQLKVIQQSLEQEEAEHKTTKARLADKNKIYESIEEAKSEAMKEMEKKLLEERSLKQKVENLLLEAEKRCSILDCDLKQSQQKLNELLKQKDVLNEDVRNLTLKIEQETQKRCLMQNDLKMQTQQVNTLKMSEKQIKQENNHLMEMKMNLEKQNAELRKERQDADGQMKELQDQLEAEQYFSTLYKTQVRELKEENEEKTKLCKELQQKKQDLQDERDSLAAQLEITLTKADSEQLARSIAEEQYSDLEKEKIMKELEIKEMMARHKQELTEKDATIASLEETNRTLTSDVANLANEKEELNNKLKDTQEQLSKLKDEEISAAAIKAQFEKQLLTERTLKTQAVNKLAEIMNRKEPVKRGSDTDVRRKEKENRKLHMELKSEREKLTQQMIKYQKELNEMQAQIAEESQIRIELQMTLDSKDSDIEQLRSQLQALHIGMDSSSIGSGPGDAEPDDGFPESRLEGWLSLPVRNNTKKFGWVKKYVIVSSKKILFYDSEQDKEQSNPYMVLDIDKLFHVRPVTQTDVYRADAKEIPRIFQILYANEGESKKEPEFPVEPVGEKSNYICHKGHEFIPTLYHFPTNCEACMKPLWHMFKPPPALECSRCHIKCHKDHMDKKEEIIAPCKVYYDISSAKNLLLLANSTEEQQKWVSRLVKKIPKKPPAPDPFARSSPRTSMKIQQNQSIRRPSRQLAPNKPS
Description: Inhibition of rat ROCK2 expressed in Sf9 cells at 10 uM

Rattus norvegicus [19] = organism: Rattus norvegicus; conditions: at 10 µM
Description: Inhibition of rat liver AMPK at 10 uM

[20] = target: T8, Casein kinase II (Homo sapiens) (UniProt P67870+P68400+P19784); conditions: Sf9, at 10 µM
Description: Inhibition of His-tagged human CK2 expressed in Sf9 cells at 10 uM

Oryctolagus cuniculus [21] = organism: Oryctolagus cuniculus; conditions: Muscle tissue, at 10 µM; remark: listed apart in the source
Description: Inhibition of PHK from rabbit skeletal muscle at 10 uM

[22] = target: Tyrosine-protein kinase Lck (Homo sapiens) (UniProt P06239); conditions: Sf9, at 10 µM
Description: Inhibition of His-tagged human LCK expressed in Sf9 cells at 10 uM

[23] = target: T9, Serine/threonine-protein kinase Chk1 (Homo sapiens) (UniProt O14757); conditions: at 10 µM
T9 sequence (whole entry): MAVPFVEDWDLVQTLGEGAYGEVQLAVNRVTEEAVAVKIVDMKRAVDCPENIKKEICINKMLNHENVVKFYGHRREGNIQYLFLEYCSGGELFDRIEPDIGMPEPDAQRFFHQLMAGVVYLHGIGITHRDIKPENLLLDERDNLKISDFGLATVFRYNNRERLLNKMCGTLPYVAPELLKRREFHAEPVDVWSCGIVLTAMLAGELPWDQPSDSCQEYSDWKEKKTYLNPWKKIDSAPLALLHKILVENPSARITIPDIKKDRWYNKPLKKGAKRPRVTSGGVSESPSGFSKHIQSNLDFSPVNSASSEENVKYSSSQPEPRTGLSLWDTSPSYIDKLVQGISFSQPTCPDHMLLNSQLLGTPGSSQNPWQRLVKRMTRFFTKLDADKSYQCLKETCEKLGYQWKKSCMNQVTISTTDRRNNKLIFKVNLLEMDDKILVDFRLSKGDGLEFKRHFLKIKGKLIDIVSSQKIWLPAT
Description: Inhibition of His-tagged human CHK1 expressed in Escherichia coli at 10 uM

[24] = target: [Pyruvate dehydrogenase (acetyl-transferring)] kinase isozyme 1, mitochondrial (Homo sapiens) (UniProt Q15118); assay: Inhibition of His-tagged human PDK1 expressed in Sf21 cells at 50 uM; conditions: values are per cent of control
[25] = target: Rho-associated protein kinase 2 (Rattus norvegicus) (UniProt Q62868); assay: Inhibition of rat ROCK2 expressed in Sf9 cells at 50 uM; conditions: values are per cent of control
Casein kinase II = Casein kinase II (Homo sapiens, UniProt P19784+P67870+P68400); assay: Inhibition of His-tagged human CK2 expressed in Sf9 cells
[26] = target: Phosphatidylinositol 4,5-bisphosphate 3-kinase catalytic subunit alpha isoform (Bos taurus) (UniProt P32871); conditions: Sf9, 50 uM
Description: Inhibition of His-tagged bovine PI3K expressed in Sf9 cells at 50 uM

Rattus norvegicus [27] = organism: Rattus norvegicus; assay: Inhibition of rat liver AMPK at 50 uM; values are per cent of control
Bos taurus [28] = organism: Bos taurus; assay: Inhibition of bovine heart PKA at 50 uM; values are per cent of control
Oryctolagus cuniculus [29] = organism: Oryctolagus cuniculus; assay: Inhibition of PHK from rabbit skeletal muscle at 50 uM; values are per cent of control; conditions: Muscle tissue
Oryctolagus cuniculus [30] = organism: Oryctolagus cuniculus; assay: Inhibition of MAPKAPK1b from rabbit skeletal muscle at 50 uM; values are per cent of control; conditions: Muscle tissue
[31] = target: RAC-alpha serine/threonine-protein kinase (Homo sapiens) (UniProt P31749); assay: Inhibition of human PKBalpha expressed in SF9 cells at 50 uM; values are per cent of control
Oryctolagus cuniculus [32] = organism: Oryctolagus cuniculus; assay: Inhibition of rabbit MKK1 expressed in Escherichia coli at 50 uM; values are per cent of control
[33] = target: T5, Serine/threonine-protein kinase Sgk1 (Homo sapiens); assay: Inhibition of His-tagged human SGK expressed in Sf9 cells at 50 uM; values are per cent of control
[34] = target: T8, Casein kinase II (Homo sapiens); assay: Inhibition of His-tagged human CK2 expressed in Sf9 cells at 50 uM; values are per cent of control
[35] = target: T3, Ribosomal protein S6 kinase alpha-5; assay: Inhibition of His-tagged human MSK1 expressed in Sf9 cells at 50 uM; values are per cent of control
[36] = target: T4, MAP kinase-activated protein kinase 5 (Homo sapiens); assay: Inhibition of His-tagged human PRAK expressed in Sf9 cells at 50 uM; values are per cent of control
[37] = target: T7, Glycogen synthase kinase-3 beta; assay: Inhibition of His-tagged human GSK3b expressed in Sf21 cells at 50 uM; values are per cent of control
[38] = target: T6, Ribosomal protein S6 kinase beta-1; assay: Inhibition of His-tagged human S6K1 expressed in Escherichia coli at 50 uM; values are per cent of control
[39] = target: T9, Serine/threonine-protein kinase Chk1 (Homo sapiens); assay: Inhibition of His-tagged human CHK1 expressed in Escherichia coli at 50 uM; values are per cent of control
[40] = target: T2, MAP kinase-activated protein kinase 2; assay: Inhibition of His-tagged human MAPKAPK2 expressed in Escherichia coli at 50 uM; values are per cent of control
[41] = target: Protein kinase C alpha type (Homo sapiens, UniProt P17252); assay: Inhibition of His-tagged human PKCalpha expressed in Escherichia coli at 50 uM; values are per cent of control
[42] = target: Mitogen-activated protein kinase 1 (Homo sapiens) (UniProt P28482); assay: Inhibition of His-tagged human MAPK2/ERK2 expressed in Escherichia coli at 50 uM; values are per cent of control
[43] = target: Mitogen-activated protein kinase 11 (Homo sapiens) (UniProt Q15759); assay: Inhibition of His-tagged human SAPK2b/p38b2 expressed in Escherichia coli at 50 uM; values are per cent of control
[44] = target: Mitogen-activated protein kinase 8 (Homo sapiens) (UniProt P45983); assay: Inhibition of His-tagged human JNK1a1/SAPK1c expressed in Escherichia coli at 50 uM; values are per cent of control
[45] = target: T1, Mitogen-activated protein kinase 13 (Homo sapiens); assay: Inhibition of His-tagged human SAPK4/p38delta expressed in Escherichia coli at 50 uM; values are per cent of control

Q: Which results are given for `CN([C@@H](Cc1ccc(OS(=O)(=O)c2cccc3cnccc23)cc1)C(=O)N1CCN(c2ccccc2)CC1)S(=O)(=O)c1cccc2cnccc12`?
A: inhibition (Homo sapiens): 0%; inhibition [1]: 96%; IC50 [2]: 0.5 µM; residual activity (Oryctolagus cuniculus [3]): 101%; residual activity [4]: 92%; residual activity [5]: 104%; residual activity [6]: 98%; residual activity [7]: 110%; level, % of control (Oryctolagus cuniculus [8]): 89%; residual activity [9]: 59%; residual activity [10]: 81%; residual activity [11]: 36%; residual activity (Bos taurus [12]): 94%; residual activity [13]: 70%; residual activity [14]: 67%; residual activity [15]: 78%; residual activity [16]: 93%; residual activity [17]: 38%; residual activity [18]: 88%; residual activity (Rattus norvegicus [19]): 97%; residual activity [20]: 103%; level, % of control (Oryctolagus cuniculus [21]): 106%; residual activity [22]: 92%; residual activity [23]: 104%

Q: With `O=c1cc(N2CCOCC2)oc2c(-c3ccccc3)cccc12` [LY-294002] as the compound, how does the residual activity [24] read?
A: 76%

Q: And the residual activity [25]?
A: 104%

Q: And the IC50 (Casein kinase II)?
A: 6.9 µM

Q: What about the residual activity [26] of the same compound?
A: 13%

Q: What about the residual activity (Rattus norvegicus [27]) of the same compound?
A: 103%

Q: What about the residual activity (Bos taurus [28]) of the same compound?
A: 91%

Q: And the level, % of control (Oryctolagus cuniculus [29])?
A: 44%

Q: What about the level, % of control (Oryctolagus cuniculus [30]) of the same compound?
A: 70%

Q: And the residual activity [31]?
A: 60%

Q: And the residual activity (Oryctolagus cuniculus [32])?
A: 101%

Q: And the residual activity [33]?
A: 72%

Q: And the residual activity [34]?
A: 18%

Q: What about the residual activity [35] of the same compound?
A: 83%

Q: What about the residual activity [36] of the same compound?
A: 68%

Q: And the residual activity [37]?
A: 53%

Q: What about the residual activity [38] of the same compound?
A: 81%

Q: What about the residual activity [39] of the same compound?
A: 90%

Q: And the residual activity [40]?
A: 74%

Q: What about the residual activity [41] of the same compound?
A: 91%

Q: And the residual activity [42]?
A: 114%

Q: What about the residual activity [43] of the same compound?
A: 98%

Q: And the residual activity [44]?
A: 108%

Q: And the residual activity [45]?
A: 94%

From ChEMBL document CHEMBL1240295, “Specificity and mechanism of action of some commonly used protein kinase inhibitors” (Biochem J, 2000)
